Data on six substances can be found in patent US11840686B2, “Modulation of prekallikrein (PKK) expression” (Ionis Pharmaceuticals, Inc., priority 2013, dated 2023).

The test system of data set [1] is human PKK mRNA. The data set is described as follows: Dose-dependent antisense inhibition of human PKK in HepaRG cells, 0.19-5.00 uM (Example 5). Type of data set: cell-based. As to conditions: HepaRG cells; for percent inhibition of PKK mRNA, 0.19 μM: 0.19 μM antisense oligonucleotide; for percent inhibition of PKK mRNA, 0.56 μM: 0.56 μM antisense oligonucleotide; for percent inhibition of PKK mRNA, 1.67 μM: 1.67 μM antisense oligonucleotide; for percent inhibition of PKK mRNA, 5.00 μM: 5.00 μM antisense oligonucleotide. The method in brief: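 HepaRG cells (20,000/well) were electroporated with antisense oligonucleotide at 0.19, 0.56, 1.67 and 5.00 μM and treated for about 16 hours. PKK mRNA was quantified by qRT-PCR with primer probe set RTS3454, normalised to RIBOGREEN total RNA, and IC50 was derived per oligonucleotide.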

Data set [2] relates to human PKK mRNA. The experiment in a line: Antisense inhibition of human PKK mRNA in HepaRG cells, 5,000 nM (Example 2). It counts as cell-based. An outline of the steps:
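HepaRG cells (20,000/well) electroporated with 5,000 nM MOE gapmer (phosphorothioate backbone, 5-methylcytosines) and harvested after ~24 h. PKK mRNA measured by qRT-PCR with primer probe set RTS3454, normalized to RIBOGREEN total RNA; percent inhibition versus untreated cells.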

Where [3] appears, read: electroporation, approximately 16 hours, Table 37.
Where [4] appears, read: human PKK mRNA in HepaRG cells, 5-10-5 gapmers, Table 14.
[5] abbreviates: electroporation, approximately 16 hours, Table 39.
Setting [6] is: 4 point dose response, Table 39.
Setting [7] is: electroporation, approximately 16 hours, Table 35.
Setting [8] is: 4 point dose response, Table 35.
[9] abbreviates: electroporation, approximately 16 hours, Table 36.

pIC50: −log10 of the molar value. Strand notation (5' to 3'): a small letter for the sugar, then the base; units joined by * are phosphorothioate-linked, units joined directly phosphodiester-linked; [ ] holds rarer units or linkages, { } end groups; capitals alone tell only the bases. e = 2'-O-(2-methoxyethyl) (MOE); [5mC] = 5-methylcytosine; d = 2'-deoxy (DNA)

One may read the pIC50 as the IC50 on a negative log10 scale, so that one unit is a factor of ten. By % inhibition is commonly meant the relative decrease from the control value, in per cent. Read a low % inhibition as little suppression.

As to “547622 (antisense eG*eT*e[5mC]*eA*e[5mC]*dT*dG*dT*dA*d[5mC]*d[5mC]*dT*dA*dT*dA*eA*e[5mC]*eT*e[5mC]*eT) [compound 547622]”, in the data set with human PKK mRNA [1] (setting [3]), the “percent inhibition of PKK at 0.19 μM” value is on record as 0%, the “percent inhibition of PKK at 0.56 μM” value is 47%, the “percent inhibition of PKK at 1.67 μM” value stood at 79% and the “percent inhibition of PKK at 5.00 μM” value was 90%. For the same substance, in the data set on human PKK mRNA [1] (4 point dose response, Table 37), the pIC50 was 6.05. Besides, the “% inhibition” value in the data set on human PKK mRNA [2] (setting [4]) came out at 88%.
Take “547275 (antisense eT*eT*eG*eG*eA*dG*dG*dT*dG*dA*dG*dT*d[5mC]*dT*d[5mC]*eT*eT*eG*eT*e[5mC]) [compound 547275]”: in the data set with human PKK mRNA [1] (setting [5]), the “percent inhibition of PKK at 0.19 μM” value stood at 34%, the “percent inhibition of PKK at 0.56 μM” value is given as 66%, the “percent inhibition of PKK at 1.67 μM” value is 82% and the “percent inhibition of PKK at 5.00 μM” value stood at 95%. Further, in the data set on human PKK mRNA [1] (setting [6]), the negative logarithm of the IC50 (pIC50) is 6.52. In the data set on human PKK mRNA [1], the “percent inhibition of PKK mRNA, 0.19 μM” value stood at 56%; the “percent inhibition of PKK mRNA, 0.56 μM” value is recorded as 16%; the “percent inhibition of PKK mRNA, 1.67 μM” value amounted to 80%; the “percent inhibition of PKK mRNA, 5.00 μM” value came to 86%. The same substance had a pIC50 with human PKK mRNA [1] (0.19-5.00 μM) of 5.92. Moreover, the “% inhibition” value in the data set with human PKK mRNA [2] (HepaRG cells, electroporation with 5,000 nM antisense oligonucleotide, approximately 24 hours, PKK mRNA by RT-PCR (RTS3454), relative to untreated control cells, Table 5 experiment) is reported as 87%.
For “546301 (antisense eT*eT*eG*eT*eA*dA*dT*dG*dT*d[5mC]*dT*dG*dA*d[5mC]*dA*eG*eA*eT*eT*eT) [compound 546301]”, in the data set with human PKK mRNA [1] (setting [7]), the “percent inhibition of PKK at 0.19 μM” value is reported as 25%, the “percent inhibition of PKK at 0.56 μM” value stood at 50%, the “percent inhibition of PKK at 1.67 μM” value turned out to be 53% and the “percent inhibition of PKK at 5.00 μM” value is given as 87%. In the data set with human PKK mRNA [1] (setting [8]), this substance showed a pIC50 of 6.10. In the data set on human PKK mRNA [2] (Table 8, HepaRG cells, electroporation with 5,000 nM antisense oligonucleotide, approx. 24 hours, PKK mRNA by RT-PCR (RTS3454), relative to untreated control cells), the “% inhibition” value is reported as 93%.
Turning to “546903 (e[5mC]*e[5mC]*eT*eA*eT*dA*dT*d[5mC]*dA*d[5mC]*dT*dG*dT*dA*d[5mC]*e[5mC]*eT*eA*eT*eA; antisense) [compound 546903]”, in the data set with human PKK mRNA [1] (setting [9]), the “percent inhibition of PKK at 0.19 μM” value came to 15%, the “percent inhibition of PKK at 0.56 μM” value is recorded as 37%, the “percent inhibition of PKK at 1.67 μM” value is 74% and the “percent inhibition of PKK at 5.00 μM” value came to 98%. In the data set with human PKK mRNA [1] (4 point dose response, Table 36), this substance showed a negative-log IC50 (pIC50) of 6.10. For the same substance, the “% inhibition” value with human PKK mRNA [2] (human PKK mRNA, HepaRG cells, 5-10-5 motif oligonucleotides targeting SEQ ID NO: 1 and 10) worked out at 91%.
For “546853 (eA*e[5mC]*eA*eG*eT*dA*dT*d[5mC]*dA*d[5mC]*dT*dG*dT*d[5mC]*d[5mC]*eT*eA*eT*eA*eT; antisense) [compound 546853]”, in the data set with human PKK mRNA [1] (setting [5]), the “percent inhibition of PKK at 0.19 μM” value is given as 47%, the “percent inhibition of PKK at 0.56 μM” value was 64% and the “percent inhibition of PKK at 1.67 μM” value is on record as 84%. This substance also showed a pIC50 in the data set on human PKK mRNA [1] (setting [6]) of 6.70. For the same substance, in the data set with human PKK mRNA [1], the “percent inhibition of PKK mRNA, 0.19 μM” value is given as 4%; the “percent inhibition of PKK mRNA, 0.56 μM” value is listed as 49%; the “percent inhibition of PKK mRNA, 1.67 μM” value is listed as 74%; the “percent inhibition of PKK mRNA, 5.00 μM” value is 92%. The substance also had a negative-log IC50 (pIC50) in the data set on human PKK mRNA [1] (0.19-5.00 μM) of 6.10. The “% inhibition” value with human PKK mRNA [2] (setting [4]) was 86%.
Turning to “547340 (antisense e[5mC]*eT*e[5mC]*e[5mC]*eT*d[5mC]*dT*d[5mC]*dA*dT*dA*dT*d[5mC]*dA*dA*e[5mC]*eT*e[5mC]*e[5mC]*eT) [compound 547340]”, in the data set on human PKK mRNA [1] (setting [7]), the “percent inhibition of PKK at 0.19 μM” value amounted to 46%, the “percent inhibition of PKK at 0.56 μM” value turned out to be 79% and the “percent inhibition of PKK at 1.67 μM” value is reported as 88%. Besides, the “percent inhibition of PKK at 0.19 0μM” value with human PKK mRNA [1] (0.19 0μM, electroporation, approximately 16 hours, Table 41) was 34%. Besides, in the data set on human PKK mRNA [1] (0.56 0μM, electroporation, approximately 16 hours, Table 41), the “percent inhibition of PKK at 0.56 0μM” value was 84%. Besides, the “percent inhibition of PKK at 1.67 1μM” value in the data set on human PKK mRNA [1] (1.67 1μM, electroporation, approximately 16 hours, Table 41) is listed as 96%. Further, in the data set on human PKK mRNA [1] (setting [8]), the pIC50 was 6.70. The same substance showed a pIC50 with human PKK mRNA [1] (4 point dose response, Table 41) of 6.52. In the data set with human PKK mRNA [2] (HepaRG cells, electroporation with 5,000 nM antisense oligonucleotide, approximately 24 hours, PKK mRNA by RT-PCR (RTS3454), relative to untreated control cells, Table 6 experiment), the “% inhibition” value stood at 93%.
